From patent US20070042995A1, “Use of acetyl-d-aminoglycosamine in treatment of local lesions and systematic symptoms related to infections of virus or bacteria” (Third Military Medical University , Chinese People …, priority 2003, published 2007)

Tests used:
[1] = test system: Proteus Mirabilis; experiment: Promoting wave test (bio-wave model); type: cell-based; conditions: final concentration 0.5%, 37° C., 9 hours
Description: 1. Experimental Materials and Method: 1.1 Sample: Pure Compound of Formula (I) 1.2 Experimental Materials: • Strain: Proteus Mirabilis that meets the following biochemical reaction characteristics; dynamics (+), urease (+), lactose (−), glucose (+), H2S (−), phenylalanine deaminase (+). • Culture medium; modified LB culture medium (components: 1% tryptones, 0.5% yeast extract, 1% sodium chloride, 0.1% glucose, 0.002% TTC, and pH=7.2 to 7.4). 1.3 Experimental Method: • Control sample: the Proteus Mirabilis were inoculated at the center of LB plate, incubating at 37° C. for 9 hours; • Test sample: the compound of formula (I) with a final concentration of 0.5% was added to the LB plate, then the Proteus Mirabilis were inoculated by the same method, and cultured at 37° C. for 9 hours. 2. […] This wave-promoting function may explain the effects of using N-acetyl-D-glucosamine or pharmaceutically acceptable salts thereof for treating and controlling local lesions and systematic symptoms caused by infections of virus or bacteria.

[2] = in vivo
Description: The toxicological test of the compound of formula (I) includes: • 1. Acute toxicity test: including tests of oral administration, intravenous injection administration, and maximum limit amount for administration; • 2. Ames test; • 3. Micronucleus test of mouse bone marrow cell; • 4. Abnormality test of mouse sperm; • 5. Aberration test of mouse testis chromosome; • 6. Chronic lethal test; • 7. Sub-chronic toxicity (feed for 90 days) test; • 8. Traditional deformity-inducing test.

[3] = test system: B16 tumor cells; experiment: Cytological test of regulating micro-heterology variation; type: cell-based; conditions: final concentration 1 g/100 ml, incomplete 1640 media, cultured more than 48 hours
Experimental: Conventional incomplete 1640 culture media were used for cell culture, and B16 tumor cells (commercially obtained from the tumor cell library of Shanghai Institute of Cytobiology) were inoculated on said media. After being continuously cultured for more than 48 hours, the micro-heterology variation of cells and the control effects of N-acetyl-D-glucosamine thereon were observed under a condition where metabolic wastes affected the growth environment. […] The control cells cultured without N-acetyl-D-glucosamine could not proliferate on the same culture media under same conditions.

[4] = test system: B16 tumor cells; experiment: Animal test of regulating micro-heterology variation (B16 tumor cells inoculated in rats); type: in vivo; conditions: of 50 rats; 5% aqueous solution i.p., 1 ml, 3 times per day, 7 days
Description: In control group without the administration of the compound of formula (1), many proliferative corpuscles appeared in at least 40 among 50 rats within 1-3 days after the tumor cells were inoculated; many immature cells appeared within 3-5 days; and visible solid tumors finally appeared within about 10 days.

[5] = test system: Pseudomonas aeruginosa, serotype 8; experiment: Animal test of controlling local lesions and systemic symptoms caused by infection of microorganism; type: in vivo, rabbits; conditions: 10% aqueous solution i.v., 2 ml, 3 times per day, 3 days; for rabbits survived: of 10 rabbits
Experimental: 10 rabbits were used in tests. The rabbits were administered with a culture of Gram-negative bacteria (Pseudomonas aeruginosa, serotype 8, wherein the bacterial number in the culture is about 3×10^11) in a dose of 10 ml per day for consecutive 3 days. […] The rabbits were intravenously administered with N-acetyl-D-glucosamine (10% aqueous solution) a dose of 2 ml every time, 3 times per day, for consecutive 3 days. […] In the test group, all 10 rabbits survived, while in the control group, 8/10 rabbits of the control group died within one week, and only 2 rabbits survived.
When N-acetyl-D-glucosamine was replaced with N-acetyl-D-glucosamine hydrochloride in the tests (other conditions were not changed), 7/10 rabbits of test group survived.

SMILES	bio-wave pattern of colony growth on LB plate [1]	dosage at which acute toxicosis reaction had not appeared [2]	cell proliferation under metabolic waste conditions [3]	number of rats in which solid tumor did not appear [4] [rats]	inflammation of nasal mucosa and respiratory tract [5]	systemic toxic symptoms ([5]; after one week)	rabbits survived [5]
CC(=O)N[C@@H]1[C@@H](O)[C@H](O)[C@@H](CO)O[C@H]1O [N-acetyl-D-glucosamine]	not only concentric rings with an interval of 3 hours, but also many fine waves on each ring	more than 2 g/kg	the cell number stably increased with the culture time	45	inflammations were alleviated	symptoms were alleviated	10 rabbits
CC(=O)N[C@H]1C(O)O[C@H](CO)[C@@H](O)[C@@H]1O.Cl (stereo partly drawn) [N-acetyl-D-glucosamine hydrochloride]	–	–	–	–	–	–	7/10
